Results published in patent US5610195A, “Ornithine decarboxylase inhibiting branched aminooxy amino alkane derivatives” (Ciba-Geigy Corporation, priority 1993, dated 1997).
Where a name gives a salt, the structure may show the parent alone. Read-outs that look alike come from different tables or passages of the source.

Experiments:
diamine oxidase (DAO) = details: known compound, state of the art; cited from earlier work
ODC = details: known compound, state of the art; cited from earlier work
[1] = cited: Eloranta et al., Life Chemistry Reports 9, 163-169 (1991); cited from earlier work
DAO from pig kidney = target: T1, DAO from pig kidney (Sus scrofa, UniProt Q9TRC7); experiment: selectivity: inhibition of diamine oxidase (14C-putrescine assay) relative to ODC; format: biochemical; details: ODC from rat liver
T1 construct: DAO from pig kidney; purchased Sigma Chemie, Deisenhofen, Germany; host or cells: pig kidney
T1 sequence (Q9TRC7 25-755): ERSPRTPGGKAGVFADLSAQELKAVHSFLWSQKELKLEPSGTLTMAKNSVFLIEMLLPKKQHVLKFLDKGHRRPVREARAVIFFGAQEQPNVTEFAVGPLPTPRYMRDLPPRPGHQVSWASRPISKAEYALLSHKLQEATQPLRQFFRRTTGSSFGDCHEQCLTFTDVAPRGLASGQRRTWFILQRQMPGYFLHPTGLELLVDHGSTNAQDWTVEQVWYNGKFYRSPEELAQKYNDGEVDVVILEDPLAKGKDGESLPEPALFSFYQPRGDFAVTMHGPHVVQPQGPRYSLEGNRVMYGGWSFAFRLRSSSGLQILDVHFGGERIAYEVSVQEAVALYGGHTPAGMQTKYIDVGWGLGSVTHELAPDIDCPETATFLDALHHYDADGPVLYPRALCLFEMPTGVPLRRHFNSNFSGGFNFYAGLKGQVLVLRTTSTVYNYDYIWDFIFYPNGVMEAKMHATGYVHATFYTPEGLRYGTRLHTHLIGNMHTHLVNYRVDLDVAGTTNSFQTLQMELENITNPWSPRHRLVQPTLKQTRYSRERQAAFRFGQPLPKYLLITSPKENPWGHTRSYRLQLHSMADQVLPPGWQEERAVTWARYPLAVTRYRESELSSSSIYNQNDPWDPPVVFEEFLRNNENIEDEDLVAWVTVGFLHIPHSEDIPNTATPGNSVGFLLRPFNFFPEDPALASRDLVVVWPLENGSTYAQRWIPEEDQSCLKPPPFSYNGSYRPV
Experimental: Briefly, the batch contains (expressed as the final concentrations) 0.1M potassium phosphate buffer pH 7.4; 10 mM mercaptoethanol, 0.40 mM putrescine, including 40 nCi [1,4-^14 C]putrescine (Amersham, 110 Ci/mole) and variable amounts of enzyme protein (DAO) and inhibitor. For standard experiments, the batches are incubated for 30 minutes at 37° C. and then transferred to an ice-bath. The reaction is stopped by addition of 0.5 ml of ice-cold 1M Na2 CO3 solution which contains 1 mM aminoguanidine. After addition of 4 ml of toluene with 5 g/l of PPO (2,5-diphenyloxazole), the test tube is continuously inverted around the transverse axis at room temperature for 10 minutes, for mixing, and is then centrifuged at 1800×g in a centrifugal rotor at 4° C. for 5 minutes and finally frozen in ethanol/dry ice. […] After a total of 3 extractions, the combined toluene extracts (which contain the radiolabelled 1-pyrroline to the extent that it has been liberated from putrescine by the action of the DAO) are measured in a liquid scintillation counter (Rack Beta 1215, LKB-Wallac). For calculation of the radioactivity employed, an aliquot of the aqueous phase after 3 extractions is transferred to Whatman GF/C filter (glass fibre filter, Whatman, USA), dried in vacuo and, after addition of 5 ml of toluene/PPO, is counted. […]

ODC from the rat liver = target: T2, ODC from the rat liver (Rattus norvegicus, UniProt P09057); experiment: inhibition of ornithine decarboxylase (Seely and Pegg method, ODC from rat liver); format: biochemical
T2 sequence (P09057 1-461): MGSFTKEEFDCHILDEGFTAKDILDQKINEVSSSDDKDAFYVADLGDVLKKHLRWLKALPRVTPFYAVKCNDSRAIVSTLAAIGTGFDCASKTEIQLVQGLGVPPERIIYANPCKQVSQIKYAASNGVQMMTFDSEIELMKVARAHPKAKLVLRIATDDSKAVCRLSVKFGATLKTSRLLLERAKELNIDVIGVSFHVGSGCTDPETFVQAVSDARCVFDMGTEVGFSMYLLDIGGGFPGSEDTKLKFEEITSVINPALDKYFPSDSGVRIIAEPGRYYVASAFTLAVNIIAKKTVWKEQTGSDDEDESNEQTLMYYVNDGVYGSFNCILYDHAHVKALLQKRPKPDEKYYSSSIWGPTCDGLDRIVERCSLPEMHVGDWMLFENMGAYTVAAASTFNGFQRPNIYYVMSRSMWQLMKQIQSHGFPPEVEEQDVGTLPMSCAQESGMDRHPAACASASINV
Experimental: White-Tabor (editors): Methods in Enzymology, Volume 94: Polyamines, Academic Press, New York 1983. If ODC from the rat liver is used in this test (isolation: Hayashi, S. I. and Kameji, T., same volume, pages 154-158), IC50 values in the micromolar range down to about 0.01 μM, preferably between about 0.01 and 1 μM, for example between 0.014 and 0.7 μM, are obtained for compounds of the formula I. IC50 is the concentration of the inhibitor at which the ODC activity is 50% of a control without inhibitor.
The following results were obtained for inhibition of ODC from the rat liver (see above, Seely and Pegg and Hayashi and Kameji) with determination of the IC50 and for inhibition of the tumour growth of T24 bladder carcinoma cells (described above) with determination of the IC50 : […]

[2] = tested on: human T24 bladder carcinoma cells; experiment: inhibition of growth of human T24 bladder carcinoma cells (methylene blue staining); format: cell-based; details: 120 h, read-out: T24 inhibition IC50
Experimental: The carcinoma cells (1000-1500) are transinoculated into 96-well microtitre plates and incubated overnight under the conditions mentioned. The test substance is added in serial dilutions on day 1. The plates are incubated under the conditions mentioned for 5 days. […] After the incubation, the cells are fixed with 3.3% (weight/volume=w/v) aqueous glutaraldehyde solution, washed with water and stained with 0.05% (w/v) aqueous methylene blue solution. After washing, the dye is eluted with 3% (w/v) aqueous hydrochloric acid. Thereafter, the optical density (OD) per depression, which is directly proportional to the number of cells, is measured with a photometer (Titertek multiskan) at 665 nm. The IC50 values are calculated with a computer system using the formula [formula]

[3] = human T24 bladder carcinoma cells, 5 days

| SMILES | IC50 (ODC from the rat liver) [nM] | IC50 [2, 3] [nM] | further results |
| --- | --- | --- | --- |
| NCCCON [APA, 1-aminooxy-3-aminopropane] |  |  | selectivity with respect to diamine oxidase (in words) (diamine oxidase (DAO)): not selective with respect to diamine oxidase; inhibition of ODC (in words) (ODC): potent inhibitor of ODC; activity in whole animals [1]: practically no action in whole animal tests; quotient of IC50 (DAO)/IC50 (ODC) (DAO from pig kidney): about 1.2 |
| C[C@H](N)CCON [Example 1, (2S)-4-Aminooxy-2-butylamine dihydrochloride] | 88 | 8100 |  |
| C[C@@H](N)CCON [Example 2, (2R)-4-Aminooxy-2-butylamine dihydrochloride] | 27 | 5490 |  |
| CC(N)CCON (centres unmarked) [Example 3, 4-Aminooxy-2-butylamine dihydrochloride] | 19 | 3760 |  |
| CCC(N)CCON (centres unmarked) [Example 4, 1-aminooxy-3-pentylamine dihydrochloride] | 360 |  |  |
| CC(C)(N)CCON [Example 5, 4-Aminooxy-2-methyl-2-butylamine dihydrochloride] | 300 |  |  |
| NOCC[C@H](N)CO [Example 6, (2S)-4-Aminooxy-1-hydroxy-2-butylamine sulfate] | 440 |  |  |
| CC(CN)CON (centres unmarked) [Example 7, 3-Aminooxy-2-methyl-1-propylamine sulfate] | 27 |  | IC50 ([2]; Homo sapiens): 2740 nM |
| CC(CCN)ON (centres unmarked) [Example 9, 3-Aminooxy-1-butylamine dihydrochloride] | 410 |  |  |
| CC(N)C(C)CON (centres unmarked) [Example 10, 4-Aminooxy-3-methyl-2-butylamine sulfate] | 320 |  |  |
